{"source": "patent US20200385396A1", "about": "“Compond for treatment or prevention of obesity or diseases related to obesity, and application thereof” (SHANGHAI INSTITUTES FOR BIOLOGICAL SCIENCES, CHINESE …, priority 2017, published 2020)", "key": {"[1]": {"test_system": "obese mice fed with high-fat diet (DIO)", "assay": "Metabolic cage, obese mice fed with high-fat diet (DIO)", "format": "in vivo, mouse", "settings": "20 mg/kg", "procedure": "(§1) Before starting the metabolic cage experiment, the mice were fed in a single cage for 1 week. After a one-week single cage adaptation period, three days before the start of the small molecule compound injection, the mice were injected with 25 μL of DMSO within 2 hours before turning off the lights every afternoon, allowing them to adapt to the injection for 3 days. After 3 days of injection, the acclimated mice were put into the metabolic cage. Starting from the same day, 25 μL of DMSO and HLY72 (20 mg/kg) were injected within 2 hours before turning off the lights for 3 consecutive days.\nNext, the effect of HLY72 on the metabolism of mice is studied. We use two methods: (1) the relevant metabolic indexes of the mice are directly measured using the metabolic cage, and (2) the expression of the relevant key metabolic genes is detected. three metabolic parameters are obtained through the metabolic cage experiment: (1) Energy expenditure (EE), energy output is an important aspect of energy balance, under conditions such as restricted diet and fasting, mice will reduce basic metabolism, reduce energy expenditure; (2) respiratory exchange ratio (RER), based on the ratio calculated by CO2 produced and the use of 02, RER of 1 means that carbohydrates is mainly used as energy, RER of 0.7 means that fat is mainly used as fuel; (3) physical activity (Activity)."}, "NUCB2 protein": {"molecular_target": "T1, NUCB2 protein (Mus musculus, UniProt P81117)", "T1 construct": "Immediately the mouse full-length NUCB2 protein expressed in E. coli was purified; His tag (inferred from pET-28A vector, Ni-NTA purification and His antibody); made in house; host or cells: E. coli BL21-CodonPlus (DE3)", "T1 sequence (P81117 25-420)": "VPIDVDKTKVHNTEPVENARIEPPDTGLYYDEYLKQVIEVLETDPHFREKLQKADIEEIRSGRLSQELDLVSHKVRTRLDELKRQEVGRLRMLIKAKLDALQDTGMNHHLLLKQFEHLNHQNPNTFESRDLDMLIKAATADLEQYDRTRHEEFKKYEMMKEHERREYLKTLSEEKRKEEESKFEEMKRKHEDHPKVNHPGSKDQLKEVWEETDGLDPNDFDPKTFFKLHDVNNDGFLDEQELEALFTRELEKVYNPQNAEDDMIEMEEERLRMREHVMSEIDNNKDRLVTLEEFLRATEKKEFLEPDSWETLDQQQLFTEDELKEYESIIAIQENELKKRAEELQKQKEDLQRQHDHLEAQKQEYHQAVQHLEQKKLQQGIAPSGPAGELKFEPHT", "assay": "Competitive binding experiment: small molecules compete with Bio78 (HLY179) for NUCB2", "settings": "competitor final concentration 100 μM; HLY179 20 μM", "procedure": "When doing the combining experiments, (1) pre-treating Streptavidin-Agarose, washing Streptavidin-Agarose Beads with IP buffer, and spinning it on the rotor for 10 minutes. (2) Re-binding small molecules HLY179 (20 μM) and Streptavidin-Agarose Beads, spinning it in a refrigeration house at 4° C. for 1-2 hours. (3) When the previous step was performed for about 1 hour, the protein was pre-cleared at the same time, and the protein and the washed Streptavidin-Agarose were rotated in a refrigeration house at 4° C. for 30 minutes. (4) the Streptavidin-Agarose Beads binded with HLY179 was centrifuged, the supernatant was removed, washed again with 600 μL of IP buffer (rotated at 4° C. for 3 minutes), centrifuged, and the supernatant was removed carefully. (5) the pre-cleard protein was added and rotated in a refrigeration house at 4° C. for 2 hours. Washd twice with IP buffer 800 μL, 2 minutes each time (all rotated in a refrigeration house at 4° C.). After the last wash, the supernatant was removed, 40 μL of 2*loading was added and cooked for 10 minutes, stored at −20° C. When doing competitive binding experiments, in the third step while pre-treating the protein adding different small molecule compounds, the final concentration was 100 μM, and the rest was the same. Western Blot: Preparing the appropriate concentration of SDS-PAGE gel, adding protein sample for electrophoretic separation. […]"}, "[2]": {"test_system": "mice fed with high-fat diet", "assay": "Paired feeding experiment in metabolic cage", "format": "in vivo, mouse", "settings": "20 mg/kg", "procedure": "Mice fed with high-fat diet (8 mice per group) are placed in a metabolic cage for 3 days and injected with 20 mg/kg of HLY72 or DMSO once a day. Half of the mice in the DMSO group are paired with the HLY72 group. The average daily food intake (A), energy dissipation (B), respiratory exchange rate (C), physical activity (D) (E) of the three groups of mice after the three-day metabolic cage experiment is completed, the weight of the three groups of mice.\nas §1\nNext, the HLY72 injection group and their paired feeding group are compared. The DMSO-injected mice were divided into two groups. The first group was free to get enough food, while the other group was provided the same amount of food as the HLY72 group daily. […] Compared with the DMSO group, the energy expenditure of the HLY72 group and its paired feeding group are decreased day and night. There is no difference in energy expenditure between the HLY72 group and its paired feeding group during the day and night (FIG. 14b)."}}, "data": [{"smiles": "C=Cc1cccc2c1N(C)Cc1cc3c(cc1-2)OCO3", "note": "[HLY72]", "values": [{"measurement": "physical activity", "setting": "[1]; at night", "result": "significantly reduced"}, {"measurement": "energy expenditure", "setting": "[1]; at night and during the day", "result": "significantly reduced"}, {"measurement": "respiratory exchange rate compared with the DMSO group", "setting": "[1]; at night and during the day", "result": "significantly reduced"}, {"measurement": "physical activity", "setting": "[1]; during the day", "result": "no change"}, {"measurement": "compete with Bio78 for binding to NUCB2", "setting": "NUCB2 protein", "result": "can also compete"}, {"measurement": "body weight, difference to paired feeding group", "setting": "[2]", "result": "no significant difference"}, {"measurement": "physical activity compared with the DMSO group and the paired feeding group", "setting": "[2]", "result": "significantly reduced"}, {"measurement": "body weight", "setting": "[2]; after three-day metabolic cage", "result": "decreased significantly"}, {"measurement": "energy expenditure compared with the DMSO group", "setting": "[2]; day and night", "result": "decreased"}, {"measurement": "energy expenditure, difference to paired feeding group", "setting": "[2]; day and night", "result": "no difference"}, {"measurement": "respiratory exchange rates compared with the paired feeding group and the DMSO group", "setting": "[2]; night and day", "result": "significantly reduced"}]}]}
